EC50 data for 48 molecules are collected here from patent publication US20140213538A1, “LYSOPHOSPHATIDIC ACID RECEPTOR ANTAGONISTS” (InterMune, Inc., priority 2013, published 2014).

pEC50: −log10 of the molar value.

The target in one assay is T1, LPA/S1P GPCR of interest (Homo sapiens, UniProt Q92633).
T1 construct: host or cells: CHO
Nature of the assay: Beta-Arrestin based assay (PathHunter). In kind it is cell-based. A digest of the protocol: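 EA Parental CHO cells (DiscoverX) were transfected with FuGENE (Roche) using CMV promoter-driven DNA constructs encoding the LPA/S1P GPCR of interest fused to a ProLink tag. Beta-arrestin recruitment in agonist mode was assessed 24-48 hrs later with PathHunter kits. Tests ran in quadruplicate in white 384 well plates, and end point luminescence was fit to a 4 parameter logistic function.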

In another assay the target is LPA1 (Homo sapiens, UniProt Q92633). The assay can be described thus: LPA1 Migration Assay (Oris). The class given is cell-based. To be noted: read-out: Cell Migration EC50. On the set-up: host or cells: primary fibroblasts (lung, dermal), HFL-1, 3T3 and CHO cells expressing LPA1R. A digest of the protocol:
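Oris exclusion-zone migration of LPA1R-expressing cells (primary lung/dermal fibroblasts, HFL-1, 3T3, CHO), Cell Tracker Green-loaded and serum-starved 12-24 h, toward LPA or serum. Fixed cells in the detection zone were counted by high-content imaging, and cell number vs. concentration was fitted to a 4-parameter logistic.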

T1 sequence (Q92633 whole entry): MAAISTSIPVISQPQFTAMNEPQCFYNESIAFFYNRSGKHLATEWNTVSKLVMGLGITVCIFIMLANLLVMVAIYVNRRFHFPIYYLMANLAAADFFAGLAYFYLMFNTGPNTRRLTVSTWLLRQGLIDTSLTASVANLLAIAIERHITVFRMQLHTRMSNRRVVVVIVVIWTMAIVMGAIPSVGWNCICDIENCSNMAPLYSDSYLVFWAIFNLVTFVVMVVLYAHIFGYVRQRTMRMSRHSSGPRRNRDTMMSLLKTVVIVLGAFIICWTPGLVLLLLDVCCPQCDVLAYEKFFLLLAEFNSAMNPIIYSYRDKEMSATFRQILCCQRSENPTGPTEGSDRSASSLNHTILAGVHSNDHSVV
Chain of LPA1 (Q92633 whole entry): as above

`C[C@@H](OC(=O)Nc1c(-c2ccc(-c3cc(F)c(OC4(C(=O)O)CC4)c(F)c3)cc2)nnn1C)c1ccccc1` [IT312]: the pEC50 on LPA/S1P GPCR of interest was above 7.30; at LPA1, 6.30 to 7.30.
The corresponding values for `Cc1nnn(-c2ccc(-c3cc(F)c(OC4(C(=O)O)CC4)c(F)c3)cc2)c1NC(=O)O[C@H](C)c1ccccc1` [IT313] are 6.30 to 7.30 and below 6.30.
For `C[C@@H](OC(=O)Nc1c(-c2ccc(-c3cc(F)c(OC4(C(=O)O)CC4)c(F)c3)cc2)cnn1C)c1ccccc1` [IT314] the same measures were above 7.30 and below 6.30.
On to `C[C@@H](OC(=O)Nc1c(-c2cc3sc(-c4ccc5scc(CC(=O)O)c5c4)cc3s2)nnn1C)c1ccccc1` [IT336], for which the pEC50 at LPA/S1P GPCR of interest is above 7.30; at LPA1 it was 6.30 to 7.30.
In the case of `Cc1noc(-c2ccc(-c3ccc(Oc4ccccc4C(=O)O)cn3)cc2)c1NC(=O)O[C@H](C)c1ccccc1` [IT344], the results for the pEC50 at LPA/S1P GPCR of interest and at LPA1 were above 7.30 and 6.30 to 7.30, respectively.
For `C[C@@H](OC(=O)Nc1c(-c2cc3sc(-c4cc(F)c(C5(C(=O)O)CC5)cc4F)cc3s2)cnn1C)c1ccccc1` [IT347] the same measures were above 7.30 and 6.30 to 7.30.
For `C[C@@H](OC(=O)Nc1c(-c2cc3sc(-c4cc(F)c(C5(C(=O)O)CC5)cc4F)cc3s2)nnn1C)c1ccccc1` [IT348] the same measures were above 7.30 and 6.30 to 7.30.
For `Cc1noc(-c2ccc(-c3ccc(Oc4ccccc4C(=O)O)c(F)c3)cc2)c1NC(=O)O[C@H](C)c1ccccc1` [IT355] the same measures were above 7.30 and above 7.30.
For `C[C@@H](OC(=O)Nc1c(-c2cc3sc(-c4ccc(C5(C(=O)O)CC5)c(F)c4F)cc3s2)cnn1C)c1ccccc1` [IT364], the pEC50 was above 7.30 on LPA/S1P GPCR of interest and 6.30 to 7.30 at LPA1.
For `C[C@@H](OC(=O)Nc1c(-c2cc3sc(-c4ccc(C5(C(=O)O)CC5)c(F)c4F)cc3s2)nnn1C)c1ccccc1` [IT365] the same measures were above 7.30 and 6.30 to 7.30.
For `C[C@@H](OC(=O)Nc1c(-c2cc3sc(-c4ccc(C5(C(=O)O)CC5)cc4Cl)cc3s2)cnn1C)c1ccccc1` [IT389] the same measures were above 7.30 and 6.30 to 7.30.
The corresponding values for `C[C@@H](OC(=O)Nc1c(-c2cc3sc(-c4ccc(C5(C(=O)O)CC5)cc4Cl)cc3s2)nnn1C)c1ccccc1` [IT390] are above 7.30 and 6.30 to 7.30.
As to `Cc1nsc(-c2cc3sc(-c4cnc(C5(C(=O)O)CC5)c(F)c4)cc3s2)c1NC(=O)O[C@H](C)c1ccccc1` [IT394], the pEC50 was above 7.30 at LPA/S1P GPCR of interest and 6.30 to 7.30 at LPA1.
For `C[C@@H](OC(=O)Nc1c(-c2ccc(C#CC(=O)N[C@@H](C(=O)O)c3ccccc3)cc2)cnn1C)c1ccccc1` [IT401] the same measures were below 6.30 and 6.30 to 7.30.
As to `C[C@@H](OC(=O)Nc1c(-c2cc3sc(-c4ccc(Oc5ccccc5C(=O)O)cc4)cc3s2)cnn1C)c1ccccc1` [IT406], the pEC50 on LPA/S1P GPCR of interest is above 7.30; at LPA1, 6.30 to 7.30.
The corresponding values for `Cc1noc(-c2ccc(-c3ccc(Oc4ncsc4C(=O)O)cc3)cc2)c1NC(=O)O[C@H](C)c1ccccc1` [IT417] are 6.30 to 7.30 and 6.30 to 7.30.
The corresponding values for `Cc1onc(-c2cc3sc(C#CC4(C(=O)O)CC4)cc3s2)c1NC(=O)O[C@H](C)c1ccccc1` [IT418] are above 7.30 and 6.30 to 7.30.
For `Cc1noc(-c2ccc(-c3ccc(Oc4scnc4C(=O)O)cc3)cc2)c1NC(=O)O[C@H](C)c1ccccc1` [IT420], the values for the pEC50 at LPA/S1P GPCR of interest and on LPA1 were above 7.30 and 6.30 to 7.30, respectively.
With `Cc1noc(-c2ccc(-c3ccc(Oc4ccsc4C(=O)O)cc3)cc2)c1NC(=O)O[C@H](C)c1ccccc1` [IT428], the pEC50 on LPA/S1P GPCR of interest is above 7.30; at LPA1, 6.30 to 7.30.
In the case of `Cc1nnn(-c2ccc(-c3cc(F)c(Oc4cccnc4C(=O)O)c(F)c3)cc2)c1NC(=O)O[C@H](C)c1ccccc1` [IT437], the pEC50 on LPA/S1P GPCR of interest is above 7.30; on LPA1, 6.30 to 7.30.
The corresponding values for `Cc1nsc(-c2ccc(-c3cc(F)c(Oc4ccncc4C(=O)O)c(F)c3)cc2)c1NC(=O)O[C@H](C)c1ccccc1` [IT439] are above 7.30 and below 6.30.
The corresponding values for `Cc1nnn(-c2ccc(-c3cc(F)c(Oc4ccncc4C(=O)O)c(F)c3)cc2)c1NC(=O)O[C@H](C)c1ccccc1` [IT440] are 6.30 to 7.30 and below 6.30.
The corresponding values for `Cc1noc(-c2ccc(-c3ccc(Oc4cccc(F)c4C(=O)O)cc3)cc2)c1NC(=O)O[C@H](C)c1ccccc1` [IT454] are above 7.30 and 6.30 to 7.30.
`C[C@@H](OC(=O)Nc1c(-c2ccc(-c3ccc(Oc4cccc(F)c4C(=O)O)cc3)cc2)nnn1C)c1ccccc1` [IT455]: the pEC50 on LPA/S1P GPCR of interest and at LPA1 was above 7.30 each time.
Turning to `C[C@@H](OC(=O)Nc1c(-c2ccc(-c3ccc(Oc4cccc(F)c4C(=O)O)cc3)cc2)cnn1C)c1ccccc1` [IT456], the pEC50 on LPA/S1P GPCR of interest was above 7.30; at LPA1 it was 6.30 to 7.30.
The corresponding values for `Cc1nnn(-c2ccc(-c3ccc(Oc4cccc(F)c4C(=O)O)cc3)cc2)c1NC(=O)O[C@H](C)c1ccccc1` [IT457] are 6.30 to 7.30 and below 6.30.
As for `Cc1noc(-c2ccc(-c3ccc(Oc4ccc(F)cc4C(=O)O)cc3)cc2)c1NC(=O)O[C@H](C)c1ccccc1` [IT459], the pEC50 at LPA/S1P GPCR of interest is above 7.30; on LPA1, 6.30 to 7.30.
The corresponding values for `C[C@@H](OC(=O)Nc1c(-c2ccc(-c3ccc(Oc4ccc(F)cc4C(=O)O)cc3)cc2)nnn1C)c1ccccc1` [IT460] are above 7.30 and above 7.30.
The corresponding values for `C[C@@H](OC(=O)Nc1c(-c2ccc(-c3ccc(Oc4ccc(F)cc4C(=O)O)cc3)cc2)cnn1C)c1ccccc1` [IT461] are above 7.30 and 6.30 to 7.30.
Take `Cc1nsc(-c2ccc(-c3cc(F)c(Oc4ccsc4C(=O)O)c(F)c3)cc2)c1NC(=O)O[C@H](C)c1ccccc1` [IT462]: the pEC50 at LPA/S1P GPCR of interest and at LPA1 was above 7.30 in each case.
Consider `Cc1noc(-c2ccc(-c3cc(F)c(Oc4ccsc4C(=O)O)c(F)c3)cc2)c1NC(=O)O[C@H](C)c1ccccc1` [IT463], for which the pEC50 at LPA/S1P GPCR of interest and at LPA1 was above 7.30 throughout.
Take `Cc1nsc(-c2ccc(-c3cc(F)c(Oc4cccnc4C(=O)O)c(F)c3)cc2)c1NC(=O)O[C@H](C)c1ccccc1` [IT464]: the pEC50 was above 7.30 on LPA/S1P GPCR of interest and 6.30 to 7.30 at LPA1.
The corresponding values for `C[C@@H](OC(=O)Nc1c(-c2ccc(-c3cc(F)c(Oc4ccsc4C(=O)O)c(F)c3)cc2)cnn1C)c1ccccc1` [IT465] are above 7.30 and above 7.30.
For `Cc1noc(-c2ccc(-c3ccc(Oc4cc(F)ccc4C(=O)O)cc3)cc2)c1NC(=O)O[C@H](C)c1ccccc1` [IT467] the same measures were above 7.30 and 6.30 to 7.30.
The corresponding values for `C[C@@H](OC(=O)Nc1c(-c2ccc(-c3ccc(Oc4cc(F)ccc4C(=O)O)cc3)cc2)nnn1C)c1ccccc1` [IT468] are above 7.30 and above 7.30.
`C[C@@H](OC(=O)Nc1c(-c2ccc(-c3ccc(Oc4cc(F)ccc4C(=O)O)cc3)cc2)cnn1C)c1ccccc1` [IT469]: the pEC50 is above 7.30 on LPA/S1P GPCR of interest and 6.30 to 7.30 at LPA1.
The corresponding values for `CCOC(=O)c1cccnc1Oc1c(F)cc(-c2ccc(-c3nnn(C)c3NC(=O)O[C@H](C)c3ccccc3)cc2)cc1F` [IT476] are above 7.30 and below 6.30.
The corresponding values for `CCOC(=O)c1ccccc1Oc1ccc(-c2ccc(-c3nnn(C)c3NC(=O)O[C@H](C)c3ccccc3)cc2)cc1` [IT477] are above 7.30 and 6.30 to 7.30.
With `COC(=O)c1ccccc1Oc1ccc(-c2ccc(-c3nnn(C)c3NC(=O)O[C@H](C)c3ccccc3)cc2)cc1` [IT478], the pEC50 at LPA/S1P GPCR of interest and on LPA1 was 6.30 to 7.30 throughout.
As to `Cc1noc(-c2ccc(-c3ccc(Oc4nc5ccccc5cc4C(=O)O)cc3)cc2)c1NC(=O)O[C@H](C)c1ccccc1` [IT482], the pEC50 was above 7.30 on LPA/S1P GPCR of interest and 6.30 to 7.30 at LPA1.
Take `Cc1noc(-c2ccc(-c3ccc(Oc4ncn(C)c4C(=O)O)cc3)cc2)c1NC(=O)O[C@H](C)c1ccccc1` [IT486]: the pEC50 on LPA/S1P GPCR of interest was 6.30 to 7.30; at LPA1, below 6.30.
For `Cc1noc(-c2cc3sc(-c4cc(F)c(OC5(C(=O)O)CC5)c(F)c4)cc3s2)c1NC(=O)O[C@H](C)c1ccccc1` [IT488] the same measures were 6.30 to 7.30 and 6.30 to 7.30.
The corresponding values for `C[C@@H](OC(=O)Nc1c(-c2ccc(-c3cc(F)c(OC4(C(=O)O)CC4)c(F)c3)cc2)oc2ccccc12)c1ccccc1` [IT491] are 6.30 to 7.30 and below 6.30.
For `C[C@@H](OC(=O)Nc1c(-c2ccc(-c3ccc(OC4(C(=O)O)CC4)c(F)c3)cc2)oc2ccccc12)c1ccccc1` [IT492], the pEC50 at LPA/S1P GPCR of interest is 6.30 to 7.30; on LPA1, below 6.30.
The corresponding values for `Cc1noc(-c2ccc(-c3ccc4c(c3)CC(C)(C(=O)O)O4)cc2)c1NC(=O)O[C@H](C)c1ccccc1` (stereo partly drawn) [IT498] are above 7.30 and 6.30 to 7.30.
Consider `Cc1noc(-c2cc3cc4sc(CC(=O)O)cc4cc3s2)c1NC(=O)O[C@H](C)c1ccccc1` [IT499], for which the pEC50 on LPA/S1P GPCR of interest and at LPA1 was below 6.30 each time.
`Cc1noc(-c2ccc(-c3cc(F)c(OC(C)(C)C(=O)O)c(F)c3)cc2)c1NC(=O)O[C@H](C)c1ccccc1` [IT500]: the figures for the pEC50 at LPA/S1P GPCR of interest and on LPA1 were above 7.30 and 6.30 to 7.30, respectively.
Turning to `Cc1nsc(-c2ccc(-c3cc(F)c(OC(C)(C)C(=O)O)c(F)c3)cc2)c1NC(=O)O[C@H](C)c1ccccc1` [IT502], the pEC50 on LPA/S1P GPCR of interest is 6.30 to 7.30; on LPA1, below 6.30.
